Laboratory results from patent US20060135569A1, “Use of benzisoselenazolone compounds against ischemic myocardial damage” (priority 2002, published 2006).
Marks after values point to notes of the source that are not given here.

Key:
[1] = tested on: arrhythmia caused by ischemia/reperfusion insults in anaesthetic rats; assay: Ischemia/reperfusion arrhythmia in anaesthetic rats, intravenous injection; format: in vivo, rat; details: for incidence and duration of VT, VF, VE / ventricular arrhythmic / latency of ventricular arrhythmic: 3 mg/Kg intravenous (femoral vein), rats; for Occurrence time / VE Duration time / VE Incidence (%) / VF Duration time / VF Incidence (%) / VT Duration time / VT Incidence (%): intravenously injected per table title
Excerpt: (1) Protective Effects of the Tested Compounds on Myocardial Insults in Rats after Intravenously Injection
Arrhythmic potency induced by myocardial insults was used to assess the potential protective effect of the compounds.

TA102 = assay: Ames test, strain TA102; format: cell-based
Experimental: (§1) To assess the mutagenic effects of 5 compounds (IMM-004; IMM-065; IMM-127; IMM-128; IMM-313), the Ames test was performed in 4 strains (TA97; TA98; TA100; TA102). The experiment was conducted with compounds at 4 concentration levels (0.5, 5, 50 and 500 μg/dish). […]

TA97 = assay: Ames test, strain TA97; format: cell-based
Experimental: as §1

[2] = tested on: acute myocardial ischemia in anesthetized dogs; assay: Acute myocardial ischemia and infarction in anesthetized dogs; format: in vivo, dog
Experimental: Dogs were divided into three groups: 1, vehicle control group, PEG 1 ml/kg, n=5; 2, dilthiazem group, 5 mg/kg, n=5; 3, IMM-004 group, 30 mg/kg, n=5. The tested drugs were prepared in distilled water at volume of 1 ml/kg. The tested items were administrated via duodenum by animals.

[3] = tested on: isolated rat hearts subjected to ischemia-reperfusion (I/R); assay: Isolated heart subjected to ischemia/reperfusion injury (arrhythmia); details: for AAT: arrhythmic occurrence time, Time / VF (ventricular fibrillation) Incidence rate (%) / VPS (ventricular premature beats) Incidence rate (%) / VT (ventricular tachycardia) Incidence rate (%): 10^−6 M, isolated heart ischemia/reperfusion
Outline: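 Rat hearts perfused in vitro and subjected to ischemia-reperfusion after drug exposure. Recorded endpoints: duration of ventricular arrhythmia and incidence of ventricular extrasystole and VT/VF.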

TA97; TA98; TA100; TA102 = assay: Ames (mutagenesis) test, overall result in 4 strains; format: cell-based; details: 0.5, 5, 50 and 500 μg/dish
Experimental: as §1

[4] = Acute toxicity study in mice; format: in vivo; details: male, KM, mouse, in vivo; oral, mice; read-out: LD50 (50% lethal dose)
Experimental: Acute toxicity studies were performed with IMM-004 and IMM-127 (synthesized by ourselves). The compound was provided as powder, which was milled and suspended in 0.5% carboxymethylcellulose sodium (CMC—Na) before use.
Male KM mice weighting 19±2 g were housed for an adaptation before use. Mice were randomly divided into groups, and each group consists of 10 animals. Mice were all fasted for 14 hrs before the administration of the tested compounds. Activity of mice in high dose group was reduced 30 min after the administration. 24 h after the administration, mice in each group were restored to normal. Mice were observed daily for a period of 7 days after the administration.

[5] = N-BT staining, Dilthiazem 5 mg/kg, IMM-004 30 mg/kg, % according to b137

For `O=c1c2cc(Cl)ccc2[se]n1-c1ccccn1` [IMM-004, 5-chloro-2-(2-pyridyl)-1,2-benz-isoselenazol-3(2H)-one], the “incidence and duration of VT, VF, VE / ventricular arrhythmic” value [1] was “all reduced”, the “latency of ventricular arrhythmic” value [1] was “significantly prolonged” and the “Occurrence time” value ([1]; 10 mg/Kg) was 9.3 ± 10.0 s. The “VE Duration time” value ([1]; 10 mg/Kg) was 4.7 ± 12.9 s, the “VE Incidence (%)” value ([1]; 10 mg/Kg) was 100% and the “VF Duration time” value ([1]; 10 mg/Kg) was 8.8 ± 7.4 s. For the same compound, the “VF Incidence (%)” value ([1]; 10 mg/Kg) was 22.2%, the “VT Duration time” value ([1]; 10 mg/Kg) was 30.2 ± 17.6 s and the “VT Incidence (%)” value ([1]; 10 mg/Kg) was 88.9%. For the same compound, the “Occurrence time” value ([1]; 30 mg/Kg) was 19.6 ± 24.1 s, the “VE Duration time” value ([1]; 30 mg/Kg) was 0.4 ± 1.3 s and the “VE Incidence (%)” value ([1]; 30 mg/Kg) was 66.7%. For the same compound, the “VF Duration time” value ([1]; 30 mg/Kg) was 3.3 ± 5.7 s, the “VF Incidence (%)” value ([1]; 30 mg/Kg) was 11.1* % and the “VT Duration time” value ([1]; 30 mg/Kg) was 17.0 ± 12.6 s. For the same compound, the “VT Incidence (%)” value ([1]; 30 mg/Kg) was 44.4** %, the “Occurrence time” value ([1]; 100 mg/Kg) was 16.4 ± 25.1 s and the “VE Duration time” value ([1]; 100 mg/Kg) was 5.5 ± 10.2 s. The “VE Incidence (%)” value ([1]; 100 mg/Kg) was 66.7%, the “VF Duration time” value ([1]; 100 mg/Kg) was 3.9 ± 6.8 s and the “VF Incidence (%)” value ([1]; 100 mg/Kg) was 33.3%. For the same compound, the “VT Duration time” value ([1]; 100 mg/Kg) was 22.7 ± 19.4 s, the “VT Incidence (%)” value ([1]; 100 mg/Kg) was 55.5* % and the “TA102 +S9” value (TA102; 0.5 μg/dish) was 328.67 ± 26.39. The “TA102 −S9” value (TA102; 0.5 μg/dish) was 164.67 ± 62.66, the “TA102 +S9” value (TA102; 5 μg/dish) was 250.67 ± 7.54 and the “TA102 −S9” value (TA102; 5 μg/dish) was 218.67 ± 23.79. For the same compound, the “TA102 +S9” value (TA102; 50 μg/dish) was 297.33 ± 24.07, the “TA102 −S9” value (TA102; 50 μg/dish) was 52.67 ± 6.59 and the “TA102 +S9” value (TA102; 500 μg/dish) was 284.00 ± 64.27. The “TA102 −S9” value (TA102; 500 μg/dish) was 16.00 ± 5.89, the “TA97 +S9” value (TA97; 0.5 μg/dish) was 55.33 ± 24.36 and the “TA97 −S9” value (TA97; 0.5 μg/dish) was 54.33 ± 4.78. The “TA97 +S9” value (TA97; 5 μg/dish) was 80.67 ± 8.58, the “TA97 −S9” value (TA97; 5 μg/dish) was 54.67 ± 4.99 and the “TA97 +S9” value (TA97; 50 μg/dish) was 204.67 ± 29.41. For the same compound, the “TA97 −S9” value (TA97; 50 μg/dish) was 47.00 ± 5.72, the “TA97 +S9” value (TA97; 500 μg/dish) was 67.33 ± 36.59 and the “TA97 −S9” value (TA97; 500 μg/dish) was 55.50 ± 3.50. For the same compound, the “infarction size (of heart) decrease compared with the vehicle control” value ([2]; 30 mg/kg) was 69.18%, the “infarction size (of ventricle) decrease compared with the vehicle control” value ([2]; 30 mg/kg) was 67.94% and the “Σ-ST decreased by” value ([2]; 30 mg/kg via duodenum, 180 min after administration) was 53.90±20.60%. The “severity of myocardial ischemia (Σ-ST)” value ([2]; 30 mg/kg via duodenum, 180 min after administration, from 325.20±55.95 mV) was 146.80±60.25 mV, the “Coronary flow (under heading arterial and venous blood oxygen content)” value ([2]; 30 mg/kg, 120 min and 180 min after administration, vs baseline) was “significantly increased” and the “Myocardial infarction size, % of heart” value ([2]; 30 mg/kg, N-BT staining) was 2.04±0.93%. The “Myocardial infarction size, % of ventricular” value ([2]; 30 mg/kg, N-BT staining) was 5.08±2.00%, the “elevation of LDH activity” value ([2]; 30 mg/kg, vs vehicle control) was “no effect” and the “elevation of serum AST” value ([2]; 30 mg/kg, vs vehicle control) was “significantly inhibited”. The “elevation of serum CK” value ([2]; 30 mg/kg, vs vehicle control) was “significantly inhibited”, the “Coronary flow increase verse the baseline” value ([2]; 30 min after treatment, 30 mg/kg) was 15.02±22.16% and the “Infarction area/ heart area” value [2, 5] was 2.04 ± 0.93. For the same compound, the Infarction area/ventricle area [2, 5] was 5.08 ± 2.00, the “Infarction area mm^2” value ([2]; N-BT staining, Dilthiazem 5 mg/kg, IMM-004 30 mg/kg, X ± SD) was 255.70 ± 58.2*** mm^2 and the “Myocardial infarction size, in words” value ([2]; N-BT staining, IMM-004 30 mg/kg, dilthiazem 5 mg/kg) was “significantly reduced”. For the same compound, the “Coronary flows, in words” value ([2]; after treatment, dilthiazem 5 mg/kg, IMM-004 30 mg/kg) was “significantly increased”, the “protective effects on myocardial insults” value ([3]; 10^−6M, isolated heart) was “significant protective effects” and the “AAT: arrhythmic occurrence time, Time” value [3] was 0.70 ± 0.33 min. The “VF (ventricular fibrillation) Incidence rate (%)” value [3] was 0** %, the “VPS (ventricular premature beats) Incidence rate (%)” value [3] was 37.5% and the “VT (ventricular tachycardia) Incidence rate (%)” value [3] was 37.5%. The “mutagenic effect (Ames test)” value (TA97; TA98; TA100; TA102) was “No evidence for a mutagenic effect” and the LD50 at 7 days [4] was > 5000 mg/kg.

For `O=c1c2cc(F)ccc2[se]n1-c1ccccn1` [IMM-127, 5-fluoro-2-(2-pyridyl)-1,2-benz-isoselenazol-3(2H)-one], the “incidence and duration of VT, VF, VE / ventricular arrhythmic” value [1] was “all reduced”, the “latency of ventricular arrhythmic” value [1] was “significantly prolonged” and the “Occurrence time” value ([1]; 10 mg/Kg) was 15.5 ± 21.5 s. For the same compound, the “VE Duration time” value ([1]; 10 mg/Kg) was 2.5 ± 6.4 s, the “VE Incidence (%)” value ([1]; 10 mg/Kg) was 100% and the “VF Duration time” value ([1]; 10 mg/Kg) was 6.6 ± 7.2 s. For the same compound, the “VF Incidence (%)” value ([1]; 10 mg/Kg) was 22.2%, the “VT Duration time” value ([1]; 10 mg/Kg) was 32.1 ± 26.1 s and the “VT Incidence (%)” value ([1]; 10 mg/Kg) was 66.7%. The “Occurrence time” value ([1]; 30 mg/Kg) was 9.6 ± 9.2 s, the “VE Duration time” value ([1]; 30 mg/Kg) was 0.2 ± 0.5 s and the “VE Incidence (%)” value ([1]; 30 mg/Kg) was 100%. For the same compound, the “VF Duration time” value ([1]; 30 mg/Kg) was 3.2 ± 5.5 s, the “VF Incidence (%)” value ([1]; 30 mg/Kg) was 11.1* % and the “VT Duration time” value ([1]; 30 mg/Kg) was 18.0 ± 11.4 s. For the same compound, the “VT Incidence (%)” value ([1]; 30 mg/Kg) was 66.7%, the “Occurrence time” value ([1]; 100 mg/Kg) was 9.0 ± 19.7 s and the “VE Duration time” value ([1]; 100 mg/Kg) was 2.2 ± 63 s. The “VE Incidence (%)” value ([1]; 100 mg/Kg) was 88.9%, the “VF Duration time” value ([1]; 100 mg/Kg) was 5.1 ± 7.8 s and the “VF Incidence (%)” value ([1]; 100 mg/Kg) was 22.2%. The “VT Duration time” value ([1]; 100 mg/Kg) was 31.1 ± 21.3 s, the “VT Incidence (%)” value ([1]; 100 mg/Kg) was 44.4** % and the “TA102 +S9” value (TA102; 0.5 μg/dish) was 205.33 ± 17.98. For the same compound, the “TA102 −S9” value (TA102; 0.5 μg/dish) was 199.67 ± 17.13, the “TA102 +S9” value (TA102; 5 μg/dish) was 216.00 ± 21.42 and the “TA102 −S9” value (TA102; 5 μg/dish) was 224.67 ± 16.34. For the same compound, the “TA102 +S9” value (TA102; 50 μg/dish) was 250.67 ± 15.43, the “TA102 −S9” value (TA102; 50 μg/dish) was 195.33 ± 35.22 and the “TA102 +S9” value (TA102; 500 μg/dish) was 233.33 ± 16.11. The “TA102 −S9” value (TA102; 500 μg/dish) was 143.67 ± 19.01, the “TA97 +S9” value (TA97; 0.5 μg/dish) was 60.67 ± 3.86 and the “TA97 −S9” value (TA97; 0.5 μg/dish) was 60.00 ± 8.16. The “TA97 +S9” value (TA97; 5 μg/dish) was 59.67 ± 8.18, the “TA97 −S9” value (TA97; 5 μg/dish) was 56.67 ± 13.27 and the “TA97 +S9” value (TA97; 50 μg/dish) was 68.50 ± 2.50. The “TA97 −S9” value (TA97; 50 μg/dish) was 60.33 ± 3.77, the “TA97 +S9” value (TA97; 500 μg/dish) was 48.00 ± 2.16 and the “TA97 −S9” value (TA97; 500 μg/dish) was 57.33 ± 6.94. For the same compound, the “AAT: arrhythmic occurrence time, Time” value [3] was 19.72 ± 4.42 min, the “VF (ventricular fibrillation) Incidence rate (%)” value [3] was 38% and the “VPS (ventricular premature beats) Incidence rate (%)” value [3] was 50%. For the same compound, the “VT (ventricular tachycardia) Incidence rate (%)” value [3] was 62.5% and the “mutagenic effect (Ames test)” value (TA97; TA98; TA100; TA102) was “No evidence for a mutagenic effect”.
